Measurements published in patent publication US10435400B2, “2,4-disubstituted phenylene-1,5-diamine derivatives and applications thereof, and pharmaceutical compositions and pharmaceutically acceptable compositions prepared therefrom” (SHANGHAI HAIYAN PHARMACEUTICAL TECHNOLOGY CO., LTD., priority 2014, dated 2019).
Read-outs that look alike come from different tables or passages of the source.

What was measured:
H1975 cells [1] = assay: Cytostatic activity by MTT method, H1975 cells; type: cell-based; conditions: read-out: H1975 cells (IC50/nM)
NIH3T3 cells = assay: Cytotoxicity by MTT method, NIH3T3 cells; type: cell-based; conditions: read-out: NIH3T3 cells MTT assay (IC50/nM);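 note: cells grown in 96-well plates with compound for 72 h, then given MTT for a further 4 h at 37 °C under 5% CO2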
Procedure: After rinsed for one time, 1.5 ml trypsin/EDTA was added to digest the adherent cells until the cells detached, and then 3.5 ml of medium was added to terminate the trypsinization. The digested cell suspension was transferred to a 15 ml falcon tube, and spun at 1300 rpm for 3 min, the supernatant was discarded, and cells were suspended in fresh medium.
The cells were added into the incubator after addition of the test compound, and incubated for 72 h, 10 μl of 5 mg/ml MTT (Sigma, M5655) solution was added to each well of the plate, and incubated the 96-well plates at 37° C. 5% CO2 for 4 h in a incubator.
The plates were spun at 2000 rpm for 5 min.

H1975 cells [2] = assay: ELISA screening EGFR T790M inhibitor for cell activity, H1975 cells; type: cell-based; conditions: ELISA; for IC50: compound 1 h, read-out: H1975 cells (IC50/nM); for Selective inhibitory activities of target on cellular level [IC50 (A431 cells)/IC50 (H1975 cells)]: ratio of IC50 values
Procedure: (§1) The reagents, preparation methods of the solution, as well as the procedures of cell treatments and preparation of lysate, and the test steps of ELISA in the following method were conducted according to the instructions of R&D DYC3570, R&D DYC1095E and R&D DYC1095BE.
(§2) Cell lysates: cell lysis buffer+10 μg/ml Aprotinin (Sigma), 10 μg/ml Leupeptin (Sigma). All reagents were prepared when using.
(2) The test compounds were diluted according to the method in MTT assay, and 10 μl of diluted compound or DMSO was added to the corresponding plate well, and incubated at 37° C. with 5% CO2 for 1 h. The final concentration of DMSO was 0.5%. Cell culture system merely treated with DMSO was used as cell control.
(3) 100 μl cell lysate was added after aspirating the medium, sealed and placed in a refrigerator at −80° C. overnight. Cell lysis buffer used as blank control.
The assay was operated according to the instructions of R&D DYC1095E or R&D DYC1095BE.
(§3) (5) 40 μl of cell lysis buffer and 60 μl of cell lysates were added, and incubated at 25° C. for 2 h under shaking;
(7) Detection antibody was diluted according to a predetermined ratio as stipulated in kit instructions by using IC diluent, and 100 μl of the diluted Detection Antibody was added to each well, and incubated at 25° C. for 1 h under shaking in darkness;
(9) reagent A and reagent B of TMB substrate (R & D DY999) were mixed with 1:1, and 100 μl of substrate was added to each well, and incubated at 25° C. for 20 minutes under shaking in darkness;
(11) The OD450 values and OD570 values of the cell control, blank control and compound treatment were measured respectively by using microplate reader (Thermo Multiskan K3), and the corresponding OD570 values were subtracted from OD450 values of the same wells to get the ODcell, ODblank and ODcompound treatment respectively.
2.3 Data Analysis Inhibition ratio (%)=100%×(ODcell−ODcompound treatment)(ODcell−ODblank)

EGFR WT kinase = EGFR WT kinase (Homo sapiens (Human), UniProt P00533); assay: Wild type EGFR kinase inhibition test (z-lyte); type: biochemical; conditions: 10 μM ATP
Sequence of EGFR WT kinase (P00533 25-1210): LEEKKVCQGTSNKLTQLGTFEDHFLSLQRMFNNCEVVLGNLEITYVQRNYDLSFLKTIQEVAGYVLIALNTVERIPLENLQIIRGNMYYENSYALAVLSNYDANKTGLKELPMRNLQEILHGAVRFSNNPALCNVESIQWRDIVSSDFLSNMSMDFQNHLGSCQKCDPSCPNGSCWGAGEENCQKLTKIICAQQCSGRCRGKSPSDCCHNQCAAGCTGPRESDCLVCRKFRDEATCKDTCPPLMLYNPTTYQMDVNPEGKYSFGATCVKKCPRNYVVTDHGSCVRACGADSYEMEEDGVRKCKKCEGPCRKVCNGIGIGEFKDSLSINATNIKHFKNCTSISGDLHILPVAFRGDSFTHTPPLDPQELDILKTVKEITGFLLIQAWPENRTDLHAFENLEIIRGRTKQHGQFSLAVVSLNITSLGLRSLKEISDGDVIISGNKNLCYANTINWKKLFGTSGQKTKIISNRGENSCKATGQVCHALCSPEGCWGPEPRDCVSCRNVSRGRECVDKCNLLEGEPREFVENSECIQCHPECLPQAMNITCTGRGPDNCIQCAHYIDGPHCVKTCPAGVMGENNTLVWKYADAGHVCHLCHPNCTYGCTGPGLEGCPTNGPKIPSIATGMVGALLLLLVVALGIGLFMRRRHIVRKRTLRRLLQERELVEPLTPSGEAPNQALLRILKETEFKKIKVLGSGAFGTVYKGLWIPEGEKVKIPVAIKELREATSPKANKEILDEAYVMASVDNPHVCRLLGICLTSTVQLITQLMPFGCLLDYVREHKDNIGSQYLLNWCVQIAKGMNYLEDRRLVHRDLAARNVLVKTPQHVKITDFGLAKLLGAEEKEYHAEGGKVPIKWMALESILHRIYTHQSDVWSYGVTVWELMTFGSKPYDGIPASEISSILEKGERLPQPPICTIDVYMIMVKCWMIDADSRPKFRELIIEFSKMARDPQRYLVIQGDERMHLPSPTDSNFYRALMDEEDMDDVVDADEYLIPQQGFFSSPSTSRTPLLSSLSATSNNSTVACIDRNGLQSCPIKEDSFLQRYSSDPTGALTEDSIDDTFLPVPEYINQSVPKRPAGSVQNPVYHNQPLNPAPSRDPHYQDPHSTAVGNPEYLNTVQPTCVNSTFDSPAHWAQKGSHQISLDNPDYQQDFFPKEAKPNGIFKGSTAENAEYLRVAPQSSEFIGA

A431 cells = assay: ELISA cell activity, EGF-stimulated A431 cells; type: cell-based; conditions: ELISA, compound 1 h then EGF 45 minutes, read-out: A431 cells (IC50/nM);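 note: Serum-starved A431 cells pretreated with compound for 1 h, then stimulated with EGF for 45 min, lysates read by ELISA (OD450 minus OD570), EGF-only wells as control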
Procedure: as §1, §2
(2) The medium of A431 cells was changed to 90 ul of DMEM FBS free medium, and incubated overnight.
(3) The test compounds were diluted according to the method in MTT assay, 10 μl of diluted compound or DMSO was added to the corresponding plate well, and incubated at 37° C. with 5% CO2 for 1 h. The final concentration of DMSO was 0.5%. 10 μl of 2 μg/L EGF was then added to each well except the cell control well, 10 μl of FBS free DMEM was added to the well, and incubated for 45 minutes; the EGF-free and compound treatment-free cells were used as cell control, and the compound treatment-free but only EGF-treated cells were used as EGF control.
(4) 100 μl cell lysate was added after aspirating the medium, sealed and placed in refrigerator at −80° C. overnight.
The assay was operated according to the instructions of R&D DYC3570E.
as §3
(7) Detection antibody was diluted according to a predetermined ratio of kit instruction by using IC dilution, and 100 μl of the diluted Detection Antibody was added to each well, and incubated at 25° C. for 1 h under shaking in darkness;
(9) reagent A and reagent B of TMB substrate (R & D DY999) were mixed at 1:1, 100 μl of substrate was added to each well, and incubated at 25° C. for 20 minutes under shaking in darkness;
(11) The OD450 values and OD570 values of the cell control, blank control and compound treatment were measured respectively by using microplate reader (Thermo Multiskan K3), and the corresponding OD570 values were subtracted from OD450 values of the same wells to get the ODEGF, ODcompound and ODcell respectively.

[3] = Mus musculus, NIH3T3, cytotoxicity, MTT, 72 h

| SMILES | Selective inhibitory activities of target on cellular level [IC50 (A431 cells)/IC50 (H1975 cells)] (H1975 cells [2]) | IC50 (EGFR WT kinase) [nM] | IC50 (NIH3T3 cells; cytotoxicity, MTT, 72 h) [nM] | further results |
| --- | --- | --- | --- | --- |
| CN(C)C/C=C/C(=O)Nc1cc2c(Nc3ccc(F)c(Cl)c3)ncnc2cc1O[C@H]1CCOC1 [BIBW2992, Afatinib, reference compound] |  |  |  | IC50 (H1975 cells [1]; Homo sapiens, NCI-H1975, 72 h): 88 nM; IC50 (NIH3T3 cells; Mus musculus, NIH3T3, 72 h): 2750 nM |
| C=CC(=O)Nc1cc(Nc2ncc(Cl)c(-c3cnc4c(ccn4C)c3)n2)c(OC)cc1N(C)CCN(C)C [Compound Z-1, N-(5-(5-chloro-4-(1-methyl-1H-pyrrolo[2,3-b]pyridin-5-yl)pyrimidin-2-amino)-2-((2-(dimethylamino)ethyl)methylamino)-4-methoxyphenyl)acrylamide] | 15.7 | 25 | 6590 | IC50 (H1975 cells [2]): 30 nM; IC50 (A431 cells): 471 nM |
| C=CC(=O)Nc1cc(Nc2ncc(Cl)c(-c3cnc4c(ccn4C)c3)n2)c(OC)cc1N1CCN(C)CC1 [Compound Z-3, N-(5-(5-chloro-4-(1-methyl-1H-pyrrolo[2,3-b]pyridin-5-yl)pyrimidin-2-amino)-4-methoxy-2-(4-methylpiperazin-1-yl)phenyl)acrylamide] |  |  |  | IC50 (NIH3T3 cells; [3]): 8160 nM |
| C=CC(=O)Nc1cc(Nc2nccc(-c3cnc4c(cnn4C)c3)n2)c(OC)cc1N1CCC(N(C)C)CC1 [Compound Z-4, N-(2-(4-(dimethylamino)piperidin-1-yl)-4-methoxy-5-(4-(1-methyl-1H-pyrazolo[3,4-b]pyridin-5-yl)pyrimidin-2-ylamino)phenyl)acrylamide] |  | 45 |  |  |
| C=CC(=O)Nc1cc(Nc2nccc(-c3cnc4c(cnn4C)c3)n2)c(OC)cc1N1CCN(C)CC1 [Compound Z-5, N-(4-methoxy-5-(4-(1-methyl-1H-pyrazolo[3,4-b]pyridin-5-yl)pyrimidin-2-ylamino)-2-(4-methylpiperazin-1-yl)phenyl)acrylamide] |  | 105 |  |  |
| C=CC(=O)Nc1cc(Nc2nccc(-c3cnn(C)c3)n2)c(OC)cc1N1CCC(N(C)C)CC1 [Compound Z-17, N-(2-(4-(dimethylamino)piperidin-1-yl)-4-methoxy-5-((4-(1-methyl-1H-pyrazol-4-yl)pyrimidin-2-yl)amino)phenyl)acrylamide] |  |  |  | IC50 (H1975 cells [2]; Homo sapiens, NCI-H1975): 77 nM; IC50 (A431 cells; Homo sapiens, A-431): 3080 nM |
| C=CC(=O)Nc1cc(Nc2nccc(-c3cnn(C)c3)n2)c(OC)cc1N(C)CCN(C)C [Compound Z-18, N-(2-((2-(dimethylamino)ethyl)(methyl)amino)-4-methoxy-5-((4-(1-methyl-1H-pyrazol-4-yl)pyrimidin-2-yl)amino)phenyl)acrylamide] |  | 197 |  |  |
| C=CC(=O)Nc1cc(Nc2ncc(F)c(-c3cnc4c(ccn4C)c3)n2)c(OC)cc1N(C)CCN(C)C [Compound Z-20, N-(2-((2-(dimethylamino)ethyl)(methyl)amino)-5-((5-fluoro-4-(1-methyl-1H-pyrrolo[2,3-b]pyridin-5-yl)pyrimidin-2-yl)amino)-4-methoxyphenyl)acrylamide] | 7.6 | 4 |  | IC50 (H1975 cells [2]; Homo sapiens, NCI-H1975): 22 nM; IC50 (A431 cells; Homo sapiens, A-431): 167 nM |
| C=CC(=O)Nc1cc(Nc2ncc(OC)c(-c3cnc4c(ccn4C)c3)n2)c(OC)cc1N(C)CCN(C)C [Compound Z-21, N-(2-((2-(dimethylamino)ethyl)(methyl)amino)-4-methoxy-5-((5-methoxy-4-(1-methyl-1H-pyrrolo[2,3-b]pyridin-5-yl)pyrimidin-2-yl)amino)phenyl)acrylamide] | 10.3 | 9 |  | IC50 (H1975 cells [2]; Homo sapiens, NCI-H1975): 11 nM; IC50 (A431 cells; Homo sapiens, A-431): 113 nM |
| C=CC(=O)Nc1cc(Nc2nccc(-c3cnc4c(ccn4C)c3)n2)c(OC)cc1N1CCC(N(C)C)CC1 [Compound Z-25] |  | 61 | 6910 |  |
| C=CC(=O)Nc1cc(Nc2nccc(-c3cnc4c(ccn4C)c3)n2)c(OC)cc1N1CCN(C)CC1 [Compound Z-26] |  | 114 | > 10000 |  |
| C=CC(=O)Nc1cc(Nc2ncc(F)c(-c3cnc4c(ccn4C)c3)n2)c(OC)cc1N1CCC(N(C)C)CC1 [Compound Z-29] |  | 118 |  |  |
| C=CC(=O)Nc1cc(Nc2ncc(C(=O)OC)c(-c3cnc4c(ccn4C)c3)n2)c(OC)cc1N(C)CCN(C)C [Compound Z-32] |  | 4 | > 10000 |  |
| C=CC(=O)Nc1cc(Nc2nccc(-c3cnc4[nH]ccc4c3)n2)c(OC)cc1N1CC(N(C)C)C1 [Compound Z-33] |  |  | > 10000 |  |
| C=CC(=O)Nc1cc(Nc2ncc(F)c(-c3cnc4c(cnn4C)c3)n2)c(OC)cc1N1CCC(N(C)C)CC1 [Compound Z-37] | 8.4 | 89 |  | IC50 (H1975 cells [2]): 57 nM; IC50 (A431 cells): 481 nM |
| C=CC(=O)Nc1cc(Nc2ncc(OC)c(-c3cnc4c(cnn4C)c3)n2)c(OC)cc1N1CCC(N(C)C)CC1 [Compound Z-38] |  | 35 | > 10000 |  |
| C=CC(=O)Nc1cc(Nc2ncc(Cl)c(-c3cnc4c(cnn4C)c3)n2)c(OC)cc1N1CCC(N(C)C)CC1 [Compound Z-40] | 30.5 | 233 |  | IC50 (H1975 cells [2]): 70 nM; IC50 (A431 cells): 2140 nM |

| SMILES | Selective inhibitory activities of target on cellular level [IC50 (A431 cells)/IC50 (H1975 cells)] (H1975 cells [2]) | IC50 (EGFR WT kinase) [nM] | IC50 (NIH3T3 cells; cytotoxicity, MTT, 72 h) [nM] | further results |
| --- | --- | --- | --- | --- |
| C=CC(=O)Nc1cc(Nc2ncc(F)c(-c3cnc4c(cnn4C)c3)n2)c(OC)cc1N(C)CCN(C)C [Compound Z-41] | 30.8 | 20 | > 10000 | IC50 (H1975 cells [2]): 31 nM; IC50 (A431 cells): 954 nM |
| C=CC(=O)Nc1cc(Nc2nccc(-c3cnc4c(c3)c(Cl)cn4C)n2)c(OC)cc1N(C)CCN(C)C [Compound Z-54] |  |  |  | IC50 (H1975 cells [1]; MTT, 72 h): 3 nM; IC50 (H1975 cells [2]): 4 nM |
| C=CC(=O)Nc1cc(Nc2nccc(-c3ccc4c(ccn4C)c3)n2)c(OC)cc1N(C)CCN(C)C [Compound Z-87] | 6.8 | 8 |  | IC50 (H1975 cells [2]): 31 nM; IC50 (A431 cells): 210 nM |
| C=CC(=O)Nc1cc(Nc2ncc(Cl)c(-c3ccc4c(ccn4C)c3)n2)c(OC)cc1N(C)CCN(C)C [Compound Z-88] | 24.9 | 11 |  | IC50 (H1975 cells [2]): 18 nM; IC50 (A431 cells): 449 nM |
| C=CC(=O)Nc1cc(Nc2ncc(F)c(-c3cnn(C)c3)n2)c(OC)cc1N(C)CCN(C)C [Compound Z-93, N-(2-((2-(dimethylamino)ethyl)(methyl)amino)-5-(5-fluoro-4-(1-methyl-1H-pyrazol-4-yl)pyrimidin-2-ylamino)-4-methoxyphenyl)acrylamide] |  |  |  | IC50 (NIH3T3 cells; [3]): > 10000 nM |
| C=CC(=O)Nc1cc(Nc2ncc(Cl)c(-c3cnn(C4CCNCC4)c3)n2)c(OC)cc1N1CCC(N(C)C)CC1 [Compound Z-96, N-(5-(5-chloro-4-(1-(piperidin-4-yl)-1H-pyrazol-4-yl)pyrimidin-2-ylamino)-2-(4-(dimethylamino)piperidin-1-yl)-4-methoxyphenyl)acrylamide] | 10.3 | 41 |  | IC50 (H1975 cells [2]; Homo sapiens, NCI-H1975): 94 nM; IC50 (A431 cells; Homo sapiens, A-431): 969 nM |
| C=CC(=O)Nc1cc(Nc2ncc(Cl)c(-c3cnn(C)c3C)n2)c(OC)cc1N1CCC(N(C)C)CC1 [Compound Z-97, N-(5-(5-chloro-4-(1,5-dimethyl-1H-pyrazol-4-yl)pyrimidin-2-ylamino)-2-(4-(dimethylamino)piperidin-1-yl)-4-methoxyphenyl)acrylamide] | 72.1 | 341 |  | IC50 (H1975 cells [2]; Homo sapiens, NCI-H1975): 104 nM; IC50 (A431 cells; Homo sapiens, A-431): 7500 nM |
| C=CC(=O)Nc1cc(Nc2ncc(Cl)c(-c3cnn(C(F)F)c3)n2)c(OC)cc1N1CCC(N(C)C)CC1 [Compound Z-101, N-(5-(5-chloro-4-(1-(difluoromethyl)-1H-pyrazol-4-yl)pyrimidin-2-ylamino)-2-(4-(dimethylamino)piperidin-1-yl)-4-methoxyphenyl)acrylamide] |  |  |  | IC50 (H1975 cells [1]; Homo sapiens, NCI-H1975, MTT, 72 h): 43 nM; IC50 (NIH3T3 cells; [3]): 3430 nM |
| C=CC(=O)Nc1cc(Nc2nccc(-c3cnc4c(ccn4C)c3)n2)c(OC)cc1N(C)CCN(C)CC [Compound Z-105] | 6.5 | 7 | 9360 | IC50 (H1975 cells [2]): 28 nM; IC50 (A431 cells): 181 nM |
| C=CC(=O)Nc1cc(Nc2ncc(Cl)c(-c3cnc4c(ccn4C)c3)n2)c(OC)cc1N(C)CCN(C)CC [Compound Z-109] | 5.1 | 28 | 6000 | IC50 (H1975 cells [2]): 85 nM; IC50 (A431 cells): 434 nM |
| C=CC(=O)Nc1cc(Nc2ncc(Cl)c(-c3cnc4c(ccn4C)c3)n2)c(OC)cc1N(C)CCN(CC)CC [Compound Z-110] |  |  | 6840 |  |
| C=CC(=O)Nc1cc(Nc2ncc(Cl)c(-c3cnc4c(ccn4C)c3)n2)c(OC)cc1N(C)CCCN(C)C [Compound Z-111] |  |  | 4010 |  |
| C=CC(=O)Nc1cc(Nc2ncc(Cl)c(-c3cnc4c(ccn4C)c3)n2)c(OC)cc1NCCCN(C)C [Compound Z-114] |  | 116 | 8280 |  |
| C=CC(=O)Nc1cc(Nc2ncc(Cl)c(-c3cnc4c(ccn4C)c3)n2)c(OC)cc1N(C)CCNC [Compound Z-116] |  | 37 | > 10000 |  |
| C=CC(=O)Nc1cc(Nc2ncc(F)c(-c3cnc4c(ccn4C)c3)n2)c(OC)cc1OCCN(C)C [Compound Z-118] |  | 6 | 3320 |  |
| C=CC(=O)Nc1cc(Nc2ncc(Cl)c(-c3cnc4c(c3)c(Cl)cn4C)n2)c(OC)cc1N(C)CCN(C)C [Compound Z-121] |  | 14 | 8530 |  |
| C=CC(=O)Nc1cc(Nc2ncc(F)c(-c3cnc4c(c3)c(Cl)cn4C)n2)c(OC)cc1N1CCC(N(C)C)CC1 [Compound Z-122] |  | 25 |  |  |
